How the values were obtained:
Pro B line = test: Proliferation inhibition of Pro B lymphoid line (cell count or XTT test); format: cell-based
Description: (§1) The lymphoid line is represented by the following clonal malignant cells: the Pre T line and the Pro B line. The cells are cultured using the same technique as the myeloid lines.
(§2) The reading is done on the third day, and the number of cells in the proliferation phase is measured. The ratio between the cells in the proliferation phase and the cells that are not proliferating yields the percentage of cells in inhibition. Normally, all of the cells are in the proliferation phase when the cells are stimulated with GMCSF.
(§3) The results are expressed in proliferation inhibition % (n=3): The result is the Mean of the three tests done.
(§4) The results are expressed in estimated proliferation inhibition % by cell count or by rock proliferation test. This test measures the incorporation of a dye when the cells are proliferating (XTT test).

Pre T line = test: Proliferation inhibition of Pre T lymphoid line (cell count or XTT test); format: cell-based
Description: as §1, §2, §3, §4

histamine H4 receptor [1] = biological target: T1, histamine H4 receptor (Homo sapiens, UniProt Q9H3N8); details: unit not given; cited from earlier work
T1 sequence (Q9H3N8 whole entry, species assumed): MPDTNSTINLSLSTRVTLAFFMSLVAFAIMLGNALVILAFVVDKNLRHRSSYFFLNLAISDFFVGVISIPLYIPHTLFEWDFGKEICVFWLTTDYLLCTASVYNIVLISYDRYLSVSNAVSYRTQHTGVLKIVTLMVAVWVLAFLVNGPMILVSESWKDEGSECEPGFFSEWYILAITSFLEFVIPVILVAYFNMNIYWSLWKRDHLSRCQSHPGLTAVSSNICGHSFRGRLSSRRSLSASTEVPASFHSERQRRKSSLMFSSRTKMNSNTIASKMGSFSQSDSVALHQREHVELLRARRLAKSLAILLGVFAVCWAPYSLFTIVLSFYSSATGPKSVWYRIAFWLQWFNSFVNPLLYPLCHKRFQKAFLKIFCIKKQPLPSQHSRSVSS

TF1 line = test: Proliferation inhibition of TF1 myeloid leukemia line (cell count or XTT test); format: cell-based
Description: (§5) The myeloid line is represented by the following clonal malignant cells: the HL60 line and the TF1 line. TF1 constitutively expresses the histamine H4 receptor and proliferates in response to GMCSF.
(§6) Tritoqualine, a mixture of 2 enantiomers, has been tested on this line between 10^−5 and 10^−7M with or without CB 10^−5M addition.
(§7) The TF1 line and the HL60 line are represented by inoculates of 100,000 cells in one milliliter incubated for 3 days with GM-CSF (10 ng/ml).
(§8) The reading is done on the third day and the number of cells in the proliferation phase is measured. […] Normally, all of the cells are in the proliferation phase when the cells are stimulated with GMCSF.
(§9) The results are expressed in proliferation inhibition % (n=3): The result is the Mean of the three tests performed.
as §4

histamine H4 receptor [2] = biological target: T1, histamine H4 receptor; test: Reversal of tritoqualine effect by a histamine H4 antagonist; format: cell-based; details: with a histamine H4 antagonist; myeloid cells
Excerpt: This appears to indicate that the H4 agonist effect is indeed responsible for the activity of tritoqualine.

HL60 line = test: Proliferation inhibition of HL60 myeloid leukemia line (cell count or XTT test); format: cell-based; details: tritoqualine at 10^-5; 3 days with GM-CSF 10 ng/ml; mean of n=3
Description: as §5, §6, §7, §8, §9, §4

[3] = white powder; breaks down into Cotarnine and phthalic acid; cited from earlier work
Solubility in water = format: physicochemical; details: including with fetal calf serum added
Excerpt: We dilute the tritoqualine in dimethyl sulfoxide, also called DMSO.

NC(=NCc1ccc(Cl)cc1)SCCCc1cnc[nH]1 [Clobenpropit]
blocking of proliferation of Pro B cells (in words) (Pro B line): not
blocking of proliferation of Pre T cells (in words) (Pre T line): block the proliferation
affinity (histamine H4 agonist) (histamine H4 receptor [1]): 10^−9
inhibition of proliferation of the myeloid line (in words) (TF1 line; 'this line' (myeloid, TF1), dose of 10^-5M): inhibits the proliferation

CCOc1c(N)c2c(c(OCC)c1OCC)C(C1c3c(cc4c(c3OC)OCO4)CCN1C)OC2=O (centres unmarked) [tritoqualine, (AMINO-7 TRIETHOXY-4,5,6 OXO-1 DIHYDRO-1,3 ISOBENZOFURANNYL-3)-1 METHOXY-8 METHYL-2METHYLENEDIOXY-6,7 TETRAHYDRO-,2,3,4 ISOQUINOLEINE]
effect of a histamine H4 antagonist on the effect of tritoqualine (histamine H4 receptor [2]): inhibits the effect of tritoqualine
proliferation inhibition % of HL60 cells (HL60 line): ~68%
sensitivity to light [3]: very sensitive to light
blocking of proliferation of Pro B cells (in words) (Pro B line): not
proliferation inhibition % of Pro B cells (Pro B line; at 10^-5, reading on third day, mean of n=3, equal to the control without product): 15%
solubility in water (Solubility in water): low solubility
blocking of proliferation of Pre T cells (in words) (Pre T line): block the proliferation
proliferation inhibition % of Pre T cells (Pre T line; at 10^-5, reading on third day, mean of n=3): approximately 45%
affinity (histamine H4 agonist) (histamine H4 receptor [1]): 10^−6
proliferation inhibition % of TF1 cells (TF1 line; tritoqualine at 10^-5, 3 days with GM-CSF 10 ng/ml, mean of n=3): approximately 58%
